Data on eleven compounds can be found in patent US7459168B2, “Insecticide transpiration apparatus” (Dainihon Jochugiku Co., Ltd., priority 2002, dated 2008).

The test relates to mosquitos. The test is described as follows: Insecticidal effect (knock-down effect) by the open cylinder method. The test is classed as in vivo. To be noted: for Insecticidal effect 15d (relative effectiveness ratio): fifteenth day; for Insecticidal effect 1d (relative effectiveness ratio): first day; for Insecticidal effect 30d (relative effectiveness ratio): thirtieth day. From the text:
An insecticide was impregnated in various kinds of raw materials for preparing insecticide impregnated materials. The resulting insecticide-impregnated materials were housed in their respective insecticide cartridges of Example 1 and Comparative Example 1, followed by mounting each of them on an insecticide transpiration apparatus of the present invention. Subsequently, each of them was subjected to a measurement for estimating the transpiring amount of the chemical and a test for estimating insecticide effects on the first, fifteenth and thirtieth days while using the apparatus for twelve hours a day.
A test of insecticidal effect (knock-down effect) was performed by the open cylinder method according to the following procedures.
Procedures for Estimating the Insecticidal Effect of an Insecticidal Compound
Two plastic cylinders of 20 cm in inside diameter and 43 cm in height are piled up. A cylinder of 20 cm both in inside diameter and height is partitioned vertically with a wire net of 16 mesh (the place where the mosquitos are put in), and is placed thereon. A cylinder of 20 cm in inside diameter and height is further placed thereon. This set consisting of the four cylinders is placed on a stand, and an insecticide transpiration apparatus is placed in the middle of the stand to transpire the insecticidal ingredient in the chemical-impregnated material to be examined. Then about 20 mosquitos to be tested are released in the upper stair of the cylinder set and the number of mosquitos knocked down is observed with the time elapsed.
Furthermore, the insecticidal effect was indicated as a relative effectiveness ratio in which an initial turning-over effect obtained by evaporation from a mosquito-repellent mat containing dl, d-cis, trans-allethrin (Pynamin Forte) on condition that a radiator plate of a heating unit is at a temperature of 160° C. The above test was repeated with various kinds of insecticides and the various amounts thereof, various chemical-impregnated materials and various particle sizes thereof, various free-volumes of the insecticide cartridge, various rotational speeds of the motor, respectively.

Where [1] appears, read: cartridge of Comparative Example 1, relative to Pynamin Forte mat.
Where [2] appears, read: cartridge of Example 1, relative to Pynamin Forte mat.
Setting [3] is: cartridge of Example 1, relative to initial effect of dl, d-cis, trans-allethrin (Pynamin Forte) mat at 160° C.

On to `CC1(C)C(C=C(Cl)C(F)(F)F)C1C(=O)OCc1c(F)c(F)c(F)c(F)c1F` (stereo not drawn) [Compound H, 2,3,4,5,6-pentafluorobenzyl-2,2-dimethyl-3-(2-chloro-2-trifluoromethylvinyl)cyclopropane carboxylate], for which, under setting [1], the “Insecticidal effect 15d (relative effectiveness ratio)” value is 1.7, the “Insecticidal effect 1d (relative effectiveness ratio)” value turned out to be 1.9 and the “Insecticidal effect 30d (relative effectiveness ratio)” value came out at 1.7. Further, under setting [2], the “Insecticidal effect 15d (relative effectiveness ratio)” value was 2.3 and the “Insecticidal effect 30d (relative effectiveness ratio)” value turned out to be 2.3. The “Insecticidal effect 1d (relative effectiveness ratio)” value under setting [3] came to 2.4.
For the compound `CC=CC1C(C(=O)OCc2c(F)c(F)c(COC)c(F)c2F)C1(C)C` (stereo not drawn) [Compound G, 4-methoxymethyl-2,3,5,6-tetrafluorobenzyl-2,2-dimethyl-3-(1-propenyl)cyclopropane carboxylate], under setting [1], the “Insecticidal effect 15d (relative effectiveness ratio)” value is 2.8, the “Insecticidal effect 1d (relative effectiveness ratio)” value amounted to 2.9 and the “Insecticidal effect 30d (relative effectiveness ratio)” value turned out to be 2.8. In addition, under setting [2], the “Insecticidal effect 15d (relative effectiveness ratio)” value came out at 3.4 and the “Insecticidal effect 30d (relative effectiveness ratio)” value is listed as 3.4. Besides, the “Insecticidal effect 1d (relative effectiveness ratio)” value under setting [3] stood at 3.4.
With `C#CCc1c(F)c(F)c(COC(=O)C2C(C)(C)C2(C)C)c(F)c1F` [Compound K, 4-propargyl-2,3,5,6-tetrafluorobenzyl-2,2,3,3-tetramethyl cyclopropane carboxylate], under setting [1], the “Insecticidal effect 15d (relative effectiveness ratio)” value stood at 2.2, the “Insecticidal effect 1d (relative effectiveness ratio)” value came out at 2.3 and the “Insecticidal effect 30d (relative effectiveness ratio)” value is 2.1. For the same compound, under setting [2], the “Insecticidal effect 15d (relative effectiveness ratio)” value amounted to 2.7 and the “Insecticidal effect 30d (relative effectiveness ratio)” value worked out at 2.7. Further, the “Insecticidal effect 1d (relative effectiveness ratio)” value under setting [3] is 2.8.
For the compound `COCc1c(F)c(F)c(COC(=O)C2C(C=C(C)C)C2(C)C)c(F)c1F` (stereo not drawn) [Compound F, 4-methoxymethyl-2,3,5,6-tetrafluorobenzyl-chrysanthemate], under setting [1], the “Insecticidal effect 15d (relative effectiveness ratio)” value is recorded as 1.7, the “Insecticidal effect 1d (relative effectiveness ratio)” value was 1.9 and the “Insecticidal effect 30d (relative effectiveness ratio)” value is 1.5. Also, under setting [2], the “Insecticidal effect 15d (relative effectiveness ratio)” value came to 2.5 and the “Insecticidal effect 30d (relative effectiveness ratio)” value turned out to be 2.5. Besides, under setting [3], the “Insecticidal effect 1d (relative effectiveness ratio)” value is 2.6.
Turning to `CC=CC1C(C(=O)OCc2c(F)c(F)cc(F)c2F)C1(C)C` (stereo not drawn) [Compound B, 2,3,5,6-tetrafluorobenzyl-2,2-dimethyl-3-(1-propenyl) cyclopropane carboxylate], the “Insecticidal effect 15d (relative effectiveness ratio)” value runs as follows: under setting [1], 2.1; under setting [2], 2.7. The “Insecticidal effect 1d (relative effectiveness ratio)” value is, setting by setting: under setting [1], 2.2; under setting [3], 2.8. For the same compound, the “Insecticidal effect 30d (relative effectiveness ratio)” value under setting [1] was 2.0 and the “Insecticidal effect 30d (relative effectiveness ratio)” value under setting [2] is reported as 2.7.
On to `CC=CC1C(C(=O)OCc2c(F)c(F)c(C)c(F)c2F)C1(C)C` (stereo not drawn) [Compound D, 4-methyl-2,3,5,6-tetrafluorobenzyl-2,2-dimethyl-3-(1-propenyl)cyclopropane carboxylate], for which the “Insecticidal effect 15d (relative effectiveness ratio)” value reads like this: under setting [1], 2.7; under setting [2], 3.2. In addition, the “Insecticidal effect 1d (relative effectiveness ratio)” value is, setting by setting: under setting [1], 2.8; under setting [3], 3.2. Also, the “Insecticidal effect 30d (relative effectiveness ratio)” value reads like this: under setting [1], 2.6; under setting [2], 3.1.
With `CC(C)=CC1C(C(=O)OCc2c(F)c(F)cc(F)c2F)C1(C)C` (stereo not drawn) [Compound A, 2,3,5,6-tetrafluorobenzyl-chrysanthemate], under setting [1], the “Insecticidal effect 15d (relative effectiveness ratio)” value worked out at 3.3, the “Insecticidal effect 1d (relative effectiveness ratio)” value is recorded as 3.4 and the “Insecticidal effect 30d (relative effectiveness ratio)” value came to 3.3. Under setting [2], the “Insecticidal effect 15d (relative effectiveness ratio)” value was determined as 3.8 and the “Insecticidal effect 30d (relative effectiveness ratio)” value came out at 3.8. Further, the “Insecticidal effect 1d (relative effectiveness ratio)” value under setting [3] is 3.9.
In the case of `CC(C)=CC1C(C(=O)OCc2c(F)c(F)c(C)c(F)c2F)C1(C)C` (stereo not drawn) [Compound C, 4-methyl-2,3,5,6-tetrafluorobenzyl-chrysanthemate], the “Insecticidal effect 15d (relative effectiveness ratio)” value by setting is: under setting [1], 1.7; under setting [2], 2.2. Further, the “Insecticidal effect 1d (relative effectiveness ratio)” value is, setting by setting: under setting [1], 1.8; under setting [3], 2.3. Moreover, the “Insecticidal effect 30d (relative effectiveness ratio)” value is reported as 1.6 under setting [1] and 2.2 under setting [2].
On to `COCc1c(F)c(F)c(COC(=O)C2C(C)(C)C2(C)C)c(F)c1F` [Compound J, 4-methoxymethyl-2,3,5,6-tetrafluorobenzyl-2,2,3,3-tetramethylcyclopropane carboxylate], for which the “Insecticidal effect 15d (relative effectiveness ratio)” value stood at 2.4 under setting [1] and 2.8 under setting [2]. In addition, the “Insecticidal effect 1d (relative effectiveness ratio)” value stood at 2.5 under setting [1] and 2.9 under setting [3]. The “Insecticidal effect 30d (relative effectiveness ratio)” value reads like this: under setting [1], 2.4; under setting [2], 2.8.
Regarding `Cc1c(F)c(F)c(COC(=O)C2C(C=C(F)F)C2(C)C)c(F)c1F` (stereo not drawn) [Compound E, 4-methyl-2,3,5,6-tetrafluorobenzyl-2,2-dimethyl-3-(2,2-difluorovinyl)cyclopropane carboxylate], the “Insecticidal effect 15d (relative effectiveness ratio)” value is listed as 2.3 under setting [1] and 2.8 under setting [2]. Moreover, the “Insecticidal effect 1d (relative effectiveness ratio)” value runs as follows: under setting [1], 2.4; under setting [3], 2.9. The “Insecticidal effect 30d (relative effectiveness ratio)” value runs as follows: under setting [1], 2.3; under setting [2], 2.8.
Consider `C#CCc1c(F)c(F)c(COC(=O)C2C(C=CC)C2(C)C)c(F)c1F` (stereo not drawn) [Compound I, 4-propargyl-2,3,5,6-tetrafluorobenzyl-3-(1-propenyl)-2,2-dimethylcyclopropane carboxylate], for which, under setting [1], the “Insecticidal effect 15d (relative effectiveness ratio)” value is 2.5, the “Insecticidal effect 1d (relative effectiveness ratio)” value was determined as 2.6 and the “Insecticidal effect 30d (relative effectiveness ratio)” value was 2.4. Also, under setting [2], the “Insecticidal effect 15d (relative effectiveness ratio)” value stood at 2.9 and the “Insecticidal effect 30d (relative effectiveness ratio)” value turned out to be 2.9. Further, the “Insecticidal effect 1d (relative effectiveness ratio)” value under setting [3] amounted to 3.0.
